Consider one compound from ChEMBL document CHEMBL5528039, “Discovery of a Macrocyclic Influenza Cap-Dependent Endonuclease Inhibitor” (J Med Chem, 2024).

SMILES strings stand for the structures. Activity calls are given as the source filed them. The calls are words filed in the database; no cut-off is given here.

The nature of series [1]: Prodrug conversion in cynomolgus monkey assessed as (7aS,16R)-2,3-difluoro-10-hydroxy-8-methyl-16-phenyl-6,7,7a,8-tetrahydro-16H-benzo[b]pyrido[1',2':1,6][1,2,4]triazino[2,3-e][1,5]oxazocine-9,11-dione Cmax at 1 mg/kg, po measured after 24 hrs by LC-MS/MS analysis. The series is classed as ADME, organism-based, Macaca fascicularis. The settings on record: in vivo.
Series [2] relates to Influenza A virus. Put plainly: Antiviral activity against Influenza A virus A/PR/8/34 infected in BALB/c mouse assessed as reduction in viral load in lungs at 5 to 30 mg/kg, po pre-infected with virus for 48 hrs followed by twice daily compound administration starting from day 2 and measured 1 hrs after last dose on day 5 by crystal violet staining based analysis. The series is classed as functional, organism-based. Conditions: dose 5-30 mg/kg, time 73.0 hrs.

Series [3] in a line: Prodrug conversion in Beagle dog assessed as (7aS,16R)-2,3-difluoro-10-hydroxy-8-methyl-16-phenyl-6,7,7a,8-tetrahydro-16H-benzo[b]pyrido[1',2':1,6][1,2,4]triazino[2,3-e][1,5]oxazocine-9,11-dione half-life at 1 mg/kg, po measured after 24 hrs by LC-MS/MS analysis. The settings on record: in vivo. The series is classed as ADME, organism-based, Canis lupus familiaris.
Series [4] in a line: Prodrug conversion in Beagle dog assessed as (7aS,16R)-2,3-difluoro-10-hydroxy-8-methyl-16-phenyl-6,7,7a,8-tetrahydro-16H-benzo[b]pyrido[1',2':1,6][1,2,4]triazino[2,3-e][1,5]oxazocine-9,11-dione AUC (0 to last) at 1 mg/kg, po measured after 24 hrs by LC-MS/MS analysis. The format is ADME, organism-based, Canis lupus familiaris. Conditions: in vivo.
A short description of series [5]: Prodrug conversion in BALB/c mouse assessed as (7aS,16R)-2,3-difluoro-10-hydroxy-8-methyl-16-phenyl-6,7,7a,8-tetrahydro-16H-benzo[b]pyrido[1',2':1,6][1,2,4]triazino[2,3-e][1,5]oxazocine-9,11-dione half-life at 10 mg/kg, po measured after 24 hrs by LC-MS/MS analysis. The series is classed as ADME, organism-based. Conditions: in vivo.
Series [6] in a line: Prodrug conversion in cynomolgus monkey assessed as (7aS,16R)-2,3-difluoro-10-hydroxy-8-methyl-16-phenyl-6,7,7a,8-tetrahydro-16H-benzo[b]pyrido[1',2':1,6][1,2,4]triazino[2,3-e][1,5]oxazocine-9,11-dione half-life at 1 mg/kg, po measured after 24 hrs by LC-MS/MS analysis. The series is classed as ADME, organism-based, Macaca fascicularis. Conditions: in vivo.
The nature of series [7]: Prodrug conversion in BALB/c mouse assessed as (7aS,16R)-2,3-difluoro-10-hydroxy-8-methyl-16-phenyl-6,7,7a,8-tetrahydro-16H-benzo[b]pyrido[1',2':1,6][1,2,4]triazino[2,3-e][1,5]oxazocine-9,11-dione AUC (0 to last) at 10 mg/kg, po measured after 24 hrs by LC-MS/MS analysis. The series is classed as ADME, organism-based. Conditions: in vivo.
For series [8], the system named is Influenza A virus. Kind of series: Antiviral activity against Influenza A virus A/PR/8/34 infected in BALB/c mouse assessed as reduction in body weight loss at 5 to 30 mg/kg, po pre-infected with virus for 48 hrs followed by twice daily compound administration starting from day 2 and measured on day 5. The settings on record: dose 5-30 mg/kg, time 72.0 hrs. The series is classed as functional, organism-based.

Series [9] can be described thus: Prodrug conversion in Beagle dog assessed as (7aS,16R)-2,3-difluoro-10-hydroxy-8-methyl-16-phenyl-6,7,7a,8-tetrahydro-16H-benzo[b]pyrido[1',2':1,6][1,2,4]triazino[2,3-e][1,5]oxazocine-9,11-dione Cmax at 1 mg/kg, po measured after 24 hrs by LC-MS/MS analysis. The series is classed as ADME, organism-based, Canis lupus familiaris. Conditions: in vivo.
A short description of series [10]: Prodrug conversion in BALB/c mouse infected with Influenza B virus B/Lee/40 assessed as (7aS,16R)-2,3-difluoro-10-hydroxy-8-methyl-16-phenyl-6,7,7a,8-tetrahydro-16H-benzo[b]pyrido[1',2':1,6][1,2,4]triazino[2,3-e][1,5]oxazocine-9,11-dione formation by measuring Ctau at 5 mg/kg, po pre-infected with virus for 24 hrs followed by twice daily compound administration from day 1 to 7 and measured on day 14 by LC-MS/MS analysis. The settings on record: in vivo, 336 h, time 14 day. The format is ADME, organism-based.

Series [11] in a line: Prodrug conversion in cynomolgus monkey assessed as (7aS,16R)-2,3-difluoro-10-hydroxy-8-methyl-16-phenyl-6,7,7a,8-tetrahydro-16H-benzo[b]pyrido[1',2':1,6][1,2,4]triazino[2,3-e][1,5]oxazocine-9,11-dione AUC (0 to last) at 1 mg/kg, po measured after 24 hrs by LC-MS/MS analysis. The settings on record: in vivo. The format is ADME, organism-based, Macaca fascicularis.
A short description of series [12]: Prodrug conversion in BALB/c mouse assessed as (7aS,16R)-2,3-difluoro-10-hydroxy-8-methyl-16-phenyl-6,7,7a,8-tetrahydro-16H-benzo[b]pyrido[1',2':1,6][1,2,4]triazino[2,3-e][1,5]oxazocine-9,11-dione Cmax at 10 mg/kg, po measured after 24 hrs by LC-MS/MS analysis. The settings on record: in vivo. The format is ADME, organism-based.
Series [13] concerns Influenza B virus. Kind of series: Antiviral activity against Influenza B virus B/Lee/40 infected in BALB/c mouse assessed as reduction in body weight loss at 0.5 to 5 mg/kg, po pre-infected with virus for 24 hrs followed by twice daily compound administration from day 1 to 7 and measured on day 14. The format is functional, organism-based. The settings on record: dose 0.5-5 mg/kg, time 14.0 day.

The subject of series [14] is Influenza B virus. Put plainly: Antiviral activity against Influenza B virus B/Lee/40 infected in BALB/c mouse assessed as reduction in improvement in survival rate at 0.5 to 5 mg/kg, po pre-infected with virus for 24 hrs followed by twice daily compound administration from day 1 to 7 and measured on day 14. Conditions: dose 0.5-5 mg/kg, time 14.0 day. The format is functional, organism-based.

Series [15] in a line: Prodrug conversion in BALB/c mouse infected with Influenza B virus B/Lee/40 assessed as (7aS,16R)-2,3-difluoro-10-hydroxy-8-methyl-16-phenyl-6,7,7a,8-tetrahydro-16H-benzo[b]pyrido[1',2':1,6][1,2,4]triazino[2,3-e][1,5]oxazocine-9,11-dione formation at 0.5 to 5 mg/kg, po pre-infected with virus for 24 hrs followed by twice daily compound administration from day 1 to 7 and measured on day 14 by LC-MS/MS analysis. The format is ADME, organism-based. The settings on record: in vivo, 336 h, dose 0.5-5 mg/kg, time 14 day.

`COC(=O)OCOc1c2n(ccc1=O)N1[C@H](c3ccccc3)c3cc(F)c(F)cc3OCC[C@H]1N(C)C2=O`: the values for the Cmax in [1], in [9] and in [12] were 163 nM, 171 nM and 309 nM, respectively. The outcome in series [2], in series [8], in series [13] and in series [14] was Active. Further, the t1/2 in series [3] stood at 4.4 h; in [5], 1.3 h; in [6] it was 3.6 h. The AUClast in series [4] turned out to be 0.724 µM·h; in series [7] it was 0.93 µM·h; in [11], 0.785 µM·h. Further, the Ctau in series [10] is listed as greater than 16 nM. Besides, the Drug metabolism result in series [15] was “Metabolite_Detected”.

As usually defined, the Cmax is the peak of the concentration-time curve.
